Results from US20240325409A1, “Fused Heterotetracyclic Antiviral Agents” (Enanta Pharmaceuticals, Inc., priority 2023, published 2024).

What follows are compounds tested on HBV (assay: HBV infection of HepG2-NTCP cells, HBeAg AlphaLISA readout). Conditions: Hepatitis B virus, 192 h, 2000 GE/cell, HBeAg in supernatant at day 8 post infection, 50% reduction relative to DMSO controls, read-out: Cellular EC50.
Type: cell-based
Experimental: HepG2-NTCP A3 cells were maintained in DMEM media supplemented with GlutaMAX™, 10% fetal bovine serum, 1% penicillin/streptomycin, and 5 ug/mL puromycin at 37° C. in a humidified atmosphere with 5% CO2 in a collagen-coated tissue culture flask.
HepG2-NTCP cells were seeded in 384 well plate containing 16,000 cells/well two days prior to the infection. On the day of infection, compounds were 3-fold serially diluted in DMSO and pre-incubated with HepG2-NTCP cells for two hours before purified HBV addition. HBV infection was carried out at 2000 GE/cell with 4% PEG, and the final concentration of DMSO is 0.5%. On day one post infection, HBV-containing media was aspirated, cells were washed once with PBS and then maintained in 2.5% DMSO containing media for the remainder of the assay.
Supernatants from infected HepG2-NTCP cells were collected at day 8 post infection, and the amount of viral antigen HBeAg was measured by HBeAg AlphaLISA detection kit (PerkinElmer) following the manufacturer's recommended protocol. Irrespective of readout, compound concentrations that reduce viral product accumulation in supernatants by 50% relative to DMSO controls (EC50) are reported. EC50 ranges are as follows: A<0.1 µM; B 0.1-1 µM; C>1 µM.
`CN1[C@H](C2CC2)CN(c2ccccc2)c2cc3c(cc2S1(=O)=O)-c1cc(C(=O)O)ccc1CO3` [Example 2, (R)-10-cyclopropyl-11-methyl-8-phenyl-8,9,10,11-tetrahydro-5H-benzo[3,4]chromeno[7,6-f][1,2,5]thiadiazepine-2-carboxylic acid 12,12-dioxide] was tested, and the EC50 was 0.1 to 1 µM.
`CN1[C@H](CC2CC2)CN(c2ccccc2)c2cc3c(cc2S1(=O)=O)-c1cc(C(=O)O)ccc1CO3` [Example 3] showed an EC50 of 0.1 to 1 µM.
`CC(C)C[C@@H]1CN(c2ccccc2)c2cc3c(cc2S(=O)(=O)N1C)-c1cc(C(=O)O)ccc1CO3` [Example 4, (R)-10-isobutyl-11-methyl-8-phenyl-8,9,10,11-tetrahydro-5H-benzo[3,4]chromeno[7,6-f][1,2,5]thiadiazepine-2-carboxylic acid 12,12-dioxide] gave an EC50 of less than 0.1 µM.
`CN1[C@H](CC(C)(C)C)CN(c2ccccc2)c2cc3c(cc2S1(=O)=O)-c1cc(C(=O)O)ccc1CO3` [Example 5] was tested, and the EC50 was less than 0.1 µM.
`CC(C)[C@@H]1CN(c2ccccc2)c2cc3c(cc2S(=O)(=O)N1C)-c1cc(C(=O)O)ccc1CO3` [Example 6] was tested, and the EC50 was 0.1 to 1 µM.
In the case of `CCCC[C@@H]1CN(c2ccccc2)c2cc3c(cc2S(=O)(=O)N1C)-c1cc(C(=O)O)ccc1CO3` [Example 7, (R)-10-butyl-11-methyl-8-phenyl-8,9,10,11-tetrahydro-5H-benzo[3,4]chromeno[7,6-f][1,2,5]thiadiazepine-2-carboxylic acid 12,12-dioxide], the EC50 is reported as less than 0.1 µM.
Compound `CN1[C@H](C2CCCCC2)CN(c2ccccc2)c2cc3c(cc2S1(=O)=O)-c1cc(C(=O)O)ccc1CO3` [Example 8] has an EC50 of less than 0.1 µM.
`CCCC[C@@H]1CN(c2ccccc2)c2cc3c(cc2S(=O)(=O)N1C)-c1cccc(C(=O)O)c1CO3` [Example 9] was tested, and the EC50 was greater than 1 µM.
With `CCCC[C@@H]1CN(c2ccccc2)c2cc3c(cc2S(=O)(=O)N1C)-c1cc(C(=O)O)c(F)cc1CO3` [Example 10, (R)-10-butyl-3-fluoro-11-methyl-8-phenyl-8,9,10,11-tetrahydro-5H-benzo[3,4]chromeno[7,6-f][1,2,5]thiadiazepine-2-carboxylic acid 12,12-dioxide] the EC50 was less than 0.1 µM.
`CCCC[C@@H]1CN(c2ccccc2)c2cc3c(cc2S(=O)(=O)N1C)-c1nc(C(=O)O)ccc1CO3` [Example 11, (R)-10-butyl-11-methyl-8-phenyl-8,9,10,11-tetrahydro-5H-pyrido[3′,2′:3,4]chromeno[7,6-f][1,2,5]thiadiazepine-2-carboxylic acid 12,12-dioxide] showed an EC50 greater than 1 µM.
`CC(C)C[C@@H]1CN(c2ccccc2)c2cc3c(cc2S(=O)(=O)N1C)-c1cc(C(=O)O)c(F)c(F)c1CO3` [Example 12, (R)-3,4-difluoro-10-isobutyl-11-methyl-8-phenyl-8,9,10,11-tetrahydro-5H-benzo[3,4]chromeno[7,6-f][1,2,5]thiadiazepine-2-carboxylic acid 12,12-dioxide] gave an EC50 of less than 0.1 µM.
For `CN1[C@H](C2CCC2)CN(c2ccccc2)c2cc3c(cc2S1(=O)=O)-c1cc(C(=O)O)c(F)c(F)c1CO3` [Example 13], the EC50 was less than 0.1 µM.
For `CN1[C@H](C2CCCCC2)CN(c2ccccc2)c2cc3c(cc2S1(=O)=O)-c1cc(C(=O)O)c(F)c(F)c1CO3` [Example 14], the EC50 was less than 0.1 µM.
`CCCC[C@@H]1CN(c2ccccc2)c2cc3c(cc2S(=O)(=O)N1C)-c1cc(C(=O)O)sc1CO3` [Example 15, (R)-9-butyl-10-methyl-7-phenyl-7,8,9,10-tetrahydro-4H-thieno[2′,3′:3,4]chromeno[7,6-f][1,2,5]thiadiazepine-2-carboxylic acid 11,11-dioxide] was tested, and the EC50 was less than 0.1 µM.
Compound `CN1[C@H](C2CCC2)CN(c2ccccc2)c2cc3c(cc2S1(=O)=O)-c1cc(C(=O)O)sc1CO3` [Example 16] has an EC50 of less than 0.1 µM.
`CCCC[C@@H]1CN(c2ccccc2)c2cc3c(cc2S(=O)(=O)N1C)-c1cc(C(=O)O)c(F)c(F)c1CO3` [Example 17] was tested, and the EC50 was less than 0.1 µM.
Work on `CC(C)C[C@@H]1CN(c2ccccc2)c2cc3c(cc2S(=O)(=O)N1C)-c1cc(C(=O)O)sc1CO3` [Example 18, (R)-9-isobutyl-10-methyl-7-phenyl-7,8,9,10-tetrahydro-4H-thieno[2′,3′:3,4]chromeno[7,6-f][1,2,5]thiadiazepine-2-carboxylic acid 11,11-dioxide] yielded an EC50 of less than 0.1 µM.
For `CN1[C@H](C2CCCCC2)CN(c2ccccc2)c2cc3c(cc2S1(=O)=O)-c1cc(C(=O)O)sc1CO3` [Example 19], the EC50 was less than 0.1 µM.
`CCCC[C@@H]1CN(c2ccccc2)c2cc3c(cc2S(=O)(=O)N1C)-c1cc(C(=O)O)ccc1[C@H](C(F)(F)F)O3` [Example 21a, (5R,10R)-10-butyl-11-methyl-8-phenyl-5-(trifluoromethyl)-8,9,10,11-tetrahydro-5H-benzo[3,4]chromeno[7,6-f][1,2,5]thiadiazepine-2-carboxylic acid 12,12-dioxide] was tested, and the EC50 was 0.1 to 1 µM.
`CCCC[C@@H]1CN(c2ccccc2)c2cc3c(cc2S(=O)(=O)N1C)-c1cc(C(=O)O)ccc1[C@@H](C(F)(F)F)O3` [Example 21b, (5S,10R)-10-butyl-11-methyl-8-phenyl-5-(trifluoromethyl)-8,9,10,11-tetrahydro-5H-benzo[3,4]chromeno[7,6-f][1,2,5]thiadiazepine-2-carboxylic acid 12,12-dioxide] showed an EC50 of 0.1 to 1 µM.
With `CCCC[C@@H]1CN(c2ccccc2)c2cc3c(cc2S(=O)(=O)N1C)-c1cc(C(=O)O)ccc1[C@H](C(C)(C)C)O3` [Example 22a, (5S,10R)-5-(tert-butyl)-10-butyl-11-methyl-8-phenyl-8,9,10,11-tetrahydro-5H-benzo[3,4]chromeno[7,6-f][1,2,5]thiadiazepine-2-carboxylic acid 12,12-dioxide] the EC50 was greater than 1 µM.
`CCCC[C@@H]1CN(c2ccccc2)c2cc3c(cc2S(=O)(=O)N1C)-c1cc(C(=O)O)ccc1[C@@H](C(C)(C)C)O3` [Example 22b, (5R,10R)-5-(tert-butyl)-10-butyl-11-methyl-8-phenyl-8,9,10,11-tetrahydro-5H-benzo[3,4]chromeno[7,6-f][1,2,5]thiadiazepine-2-carboxylic acid 12,12-dioxide] showed an EC50 greater than 1 µM.
With `CCCC[C@@H]1CN(c2ccccc2)c2cc3c(cc2S(=O)(=O)N1C)-c1cc(C(=O)O)ccc1C(C)(C)O3` [Example 23, (R)-10-butyl-5,5,11-trimethyl-8-phenyl-8,9,10,11-tetrahydro-5H-benzo[3,4]chromeno[7,6-f][1,2,5]thiadiazepine-2-carboxylic acid 12,12-dioxide] the EC50 was 0.1 to 1 µM.
For `CCCCC1CN(c2ccccc2)c2cc3c(cc2S(=O)(=O)N1C)-c1cc(C(=O)O)ccc1OC3` (stereo not drawn) [Example 24, 10-butyl-11-methyl-8-phenyl-8,9,10,11-tetrahydro-6H-benzo[3,4]isochromeno[7,6-f][1,2,5]thiadiazepine-2-carboxylic acid 12,12-dioxide], the EC50 was 0.1 to 1 µM.
Work on `CN1[C@H](C2CCCCC2)CNc2cc3c(cc2S1(=O)=O)-c1cc(C(=O)O)ccc1CO3` [Example 25, (R)-10-cyclohexyl-11-methyl-8,9,10,11-tetrahydro-5H-benzo[3,4]chromeno[7,6-f][1,2,5]thiadiazepine-2-carboxylic acid 12,12-dioxide] yielded an EC50 greater than 1 µM.
For `CCCC[C@@H]1CN(c2ccccc2)c2cc3c(cc2S(=O)(=O)N1C)-c1cc(C(=O)O)ccc1CN3C` [Example 27, (R)-10-butyl-6,11-dimethyl-8-phenyl-5,6,8,9,10,11-hexahydro-[1,2,5]thiadiazepino[7,6-b]phenanthridine-2-carboxylic acid 12,12-dioxide], the EC50 was less than 0.1 µM.
Compound `CCCC[C@@H]1CN(c2ccccc2)c2cc3c(cc2S(=O)(=O)N1C)-c1cc(C(=O)O)ccc1CN3C(C)C` [Example 28] has an EC50 of 0.1 to 1 µM.
In the case of `CCCC[C@@H]1CN(c2ccccc2)c2cc3c(cc2S(=O)(=O)N1C)-c1cc(C(=O)O)ccc1CN3` [Example 29], the EC50 is reported as 0.1 to 1 µM.
In the case of `CN1[C@H](C2CCCCC2)CN(c2ccccc2)c2cc3c(cc2S1(=O)=O)-c1cc(C(=O)O)ccc1CN3c1ccccc1F` [Example 30], the EC50 is reported as greater than 1 µM.
`CN1Cc2ccc(C(=O)O)cc2-c2cc3c(cc21)NC[C@@H](C1CCCCC1)N(C)S3(=O)=O` [Example 31, (R)-10-cyclohexyl-6,11-dimethyl-5,6,8,9,10,11-hexahydro-[1,2,5]thiadiazepino[7,6-b]phenanthridine-2-carboxylic acid 12,12-dioxide] gave an EC50 greater than 1 µM.
Compound `CN1[C@H](C2CCCCC2)CNc2cc3c(cc2S1(=O)=O)-c1cc(C(=O)O)ccc1CN3c1ccccc1F` [Example 32] has an EC50 of 0.1 to 1 µM.
`CCCC[C@@H]1CN(c2ccccc2)c2cc3c(cc2S(=O)(=O)N1C)-c1cc(C(=O)O)ccc1C1(CC1)N3` [Example 33, (R)-10′-butyl-11′-methyl-8′-phenyl-8′,9′,10′,11′-tetrahydro-6′H-spiro[cyclopropane-1,5′-[1,2,5]thiadiazepino[7,6-b]phenanthridine]-2′-carboxylic acid 12′,12′-dioxide] gave an EC50 greater than 1 µM.
`CCCC[C@@H]1CN(c2ccccc2)c2cc3oc4ccc(C(=O)O)cc4c3cc2S(=O)(=O)N1C` [Example 34, (R)-3-butyl-2-methyl-5-phenyl-2,3,4,5-tetrahydrobenzo[2,3]benzofuro[6,5-f][1,2,5]thiadiazepine-10-carboxylic acid 1,1-dioxide] gave an EC50 of 0.1 to 1 µM.
